What was measured:
[1] = test system: Patient derived GSC (GB5); experiment: Effect of compound treatment on GSC phenotype (adhesion, morphology), GB5; assay type: cell-based, human; settings: GB5, 10 uM, three days
Source text: FIG. 1: phase contrast images of GB5 morphology untreated (CTL DMSO) or treated with the indicated compound (“Cpd” denotes compound) at the indicated concentration. Control cells grow as non-adherent spheroids composed of numerous GSC. When differentiated the cells become adherent and spread on the culture dish.
B—Cell culture: Patient-derived cells GB5 were isolated from surgical resection of human primary GBM provided by the department of neurosurgery of the University Hospital of Nice. TG6 (patient-derived cell from primary GBM) and HNNSC25 (Human Normal Neural Stem Cells) have been provided by Dr Hervé Chneiweiss, University of Pierre and Marie Curie, Paris. The resulting primary cultures (GB5, TG6, HNNSC25) were grown in NS34+ medium containing EGF and bFGF (DMEM-F12 1/1 ratio, 10 mM glutamine, 10 mM Hepes, 0.025% Sodium bicarbonate, N2, G5, and B27).
Patient derived GSC (GB5) were treated with growing concentration of Compounds 9a-b and 18a-b (10 to 100 uM) during three days). […] Similar results have been obtained with TG6.

GB5 cells [2] = experiment: Mitosis: cells positive for histone H3 phosphorylated on ser-10, GB5; assay type: cell-based, human; settings: GB5, H3-ser10 positive cells
Procedure: FIG. 2: Compounds 9a-b and 18a-b effect on stemness marker expression, clonal expansion and mitosis in GB5 cells. (A) NESTIN expression was assessed by immunofluorescence in GB5 treated with increasing amount of Compounds 9a-b and 18a. The number of NESTIN positive cells was counted for each treatment and express as percentage of the control (100%). The results are the meaning of at least two separate experiments. […] (C) Clonal expansion analysis was performed with GB5 cells as described in the material and method section. Two and three weeks later, the number of spheroids is counted and reported as percentage of the initial number of cells in the well. The results are the meaning of a minimum of two separate experiments. (D) The number of mitosis in the culture was determined by the detection of the number of cells positive for histone H3 phosphorylated on ser-10 (H3-ser10). H3-ser10 expression was assessed by immunofluorescence in GB5 treated with increasing amount of Compounds 9a-b and 18a. The number of positive cells was counted for each treatment and express as percentage of the control (100%). The results are the meaning of at least two separate experiments.
III—Immunofluorescence assay: TG6 and GB5 were seeded at 2000 cells/well in 24 wells plate in NS34+ alone or containing 5, 7.5, 10, 12.5, 15, 20 and 25 uM of Compounds 9a-b and 18a-b. Cultures were incubated 4 days and the cells were fixed with 4% paraformaldehyde for 10 min at room temperature then washed with PBS. Cells were then incubated with ammonium chloride at 20 mM 5 min at room temperature and washed 5 times with PBS. Blocking and hybridization were realized in PBS containing 10% FCS and 0.1% Triton X100. Anti-Nestin and anti-H3Phospho serine 10 antibodies were incubated 2 hours at room temperature then washed with PBS. Fluorescence coupled secondary antibodies and Hoechst 33342 nuclei counterstaining reagent were hybridized one hour at room temperature. Cells were mounted with anti-fading agent then imaged, counted and quantified using fluorescent microscopy (TiE Nikon) and NiS software (Nikon).
It was further investigated the effects of selected compounds on GSC clonal expansion as well as their capacity of mitosis (FIGS. 2B and C). Compounds 9a-b and 18a treatment altered GSC clonal expansion and mitosis. The most efficient inhibition of clonal expansion was provided by Compound 9a treatment (IC50<10 uM) while both Compounds 9a-b were the most efficient for mitosis inhibition (IC50<10 uM) (FIGS. 2C and D).

GB5 = experiment: XTT toxicity assay on GSC (GB5); assay type: cell-based
Procedure: (§1) FIG. 4: Determination of compound toxicity on GSC and normal human cells. (A) GB5 were incubated with growing concentration of Compounds 9a-b and 18a. (B) human normal neural stem cell (NNSC), human normal kidney cells (NHEK), human normal hepatocytes (HEPRG) and (C) human endothelial cells (HUVEC) were treated with growing concentration of Compound 9a. 7 days later, the cells were subjected to an XTT assays as described in the method section. The results are the meaning of at least two separate experiments. Cell death was confirmed by trypan blue staining (not shown).
II—XTT assay: TG6 and GB5 were seeded at 2000 cells/well in 96 wells plate in NS34+ alone or containing 10, 20, 25, 50 and 100 uM of Compounds 9a-b and 18a-b. Cultures were incubated 4 days and the cell proliferation was evaluated as indicated by the manufacturer.
(§2) V—Toxicity tests: NNSC, GB5, TG6, HEK293, and HepaRG, HUVEC were seeded at 2000 cells/well in 96 wells plate in their respective culture mediums alone or containing growing concentration from 10 to 500 uM of Compounds 9a-b. Cultures were incubated 4 days and the cellular toxicity has been evaluated by XTT assays. Cell viability has been also assessed by counting living and dead cells with trypan blue staining.
XTT assays allows, through cell metabolism measurement, to determine a cytotoxic/cytostatic effects. Compounds 9a-b and 18a were tested for their eventual toxicity by XTT assays as described in the material and method section. At the working concentrations 10 to 25 uM, the compounds are not toxic for GSC (FIG. 4A). […] Compound 9a toxicity was further tested on normal neural stem cells (NNSC), human kidney (NHEK), human hepatocytes (HEPRG) and human endothelial cells (HUVEC). The compound is not toxic on NNSC, NHEK, HEPRG and HUVEC cells when used between 10 to 50 uM. At 100 uM and above, Compound 9a was toxic (FIG. 4).

human kidney (NHEK) = experiment: XTT toxicity assay on human kidney cells; assay type: cell-based
Procedure: as §1
HEK293 (human embryonic kidney cell) were grown in DMEM supplemented with glutamax and 10% foetal calf serum.
as §2
XTT assays allows, through cell metabolism measurement, to determine a cytotoxic/cytostatic effects. Compounds 9a-b and 18a were tested for their eventual toxicity by XTT assays as described in the material and method section. […]

GB5 cells [3] = experiment: TMZ assay: GSC sensitivity to Temozolomide (XTT); assay type: cell-based, human; settings: three days
Procedure: FIG. 5: Sensitivity to TMZ was assessed by comparing the percentage of dead cells between TMZ treated GB5 and TMZ treated GB5 in combination with Compound 9a. GB5 cells have been treated with 400 uM TMZ alone or in combination with growing concentrations of Compounds 9a-b and 18b. The results are the meaning of at least two separate experiments.
IV—TMZ assay: TG6 and GB5 were seeded at 2000 cells/well in 96 wells plate in NS34+ or treated with medium containing 400 uM of TMZ alone or mixed with 10, 25 and 50 uM of Compounds 9a-b and 18a-b. Cultures were incubated 4 days and the cell viability has been evaluated by XTT assays and a count of living and dead cells with trypan blue staining.
Temozolomide is the chemotherapy of reference for GBM treatment. In order to assess whether the compounds might sensitize GSC to TMZ, TMZ (400 uM) pretreated GB5 cells were incubated with 10, 25 and 50 uM of Compounds 9a-b and 18b. Three days later the experiment is stop and the cells were subjected to an XTT assays. […] Cell toxicity was confirmed by trypan blue staining.

For `NCCCCNCCCNC(=O)c1csc(-c2csc(CCNC(=O)CCc3cn(CC4OC(OC5C(O)C(N)CC(N)C5OC5OC(CN)C(O)C(O)C5N)C(O)C4OC4OC(CN)C(O)C(O)C4N)nn3)n2)n1` (stereo not drawn) [Compound 9a, N-(3-((4-Aminobutyl)amino)propyl)-2′-(2-(3-(1-methyl-1H-1,2,3-triazol-4-yl)propanamido)ethyl)-[2,4′-bithiazole]-4-carboxamide-neomycin], the “adhesion and changes in GSC morphology” value [1] was “induced adhesion and changes in GSC morphology”, the GSC mitosis (GB5 cells [2]) was “altered” and the IC50 (GB5 cells [2]; Homo sapiens, read-out: mitosis inhibition IC50) was under 10 µM. The “toxicity for GSC (XTT)” value (GB5; GB5, 50 uM and higher) was “relative toxicity”, the “toxicity for GSC (XTT)” value (GB5; GB5, 10 to 25 uM) was “not toxic” and the “toxicity (XTT)” value (human kidney (NHEK); 100 uM and above) was “toxic”. For the same compound, the “toxicity (XTT)” value (human kidney (NHEK); between 10 to 50 uM) was “not toxic”, the “increase of TMZ sensitivity” value (GB5 cells [3]; GB5, TMZ 400 uM plus compound at 10 uM) was 2 fold and the “increase of TMZ sensitivity, maximal effect” value (GB5 cells [3]; GB5, TMZ 400 uM plus compound at 50 uM) was 2.9 fold.
